Literature values as cited in patent US12504433B2, “Methods, systems and kits for in-pen assays” (BRUKER CELLULAR ANALYSIS, INC., priority 2020, dated 2025).

Columns and labels:
Fc of hIgG = settings: read-out: Affinity for IgG

Question: For “5′-rGp-rGp-rAp-rGp-rGp-fUp-fCp-fCp-rGp-rAp-rAp-rAp-rGp-rGp-rAp-fCp-fUp-fCp-fCp-3′ [CPD 5]”, which Kd (Fc of hIgG) is on record?
Answer: 75 nM

Question: Which “Affinity for IgG” value (IgG; stated in words) does the source give for “CPD 1: Protein A-AF594, Pierce Recombinant Protein A (ThermoFisher Cat. # 77674)” here?
Answer: nanomolar

Question: With “DCAWHLGELVWCT [CPD 4, Asp Cys Ala Trp His Leu Gly Glu Leu Val Trp Cys Thr]” as the substance, how does the Kd (IgG; Fc, read-out: Affinity for IgG) read?
Answer: 100 nM
